Test results taken from US20250163059A1, “HETEROCYCLIC KINASE INHIBITORS” (Incyte Corporation, priority 2023, published 2025).

Columns and labels:
[1] = target: T1, catalytic domain (JH1) of JAK2 protein (Homo sapiens, UniProt O60674); experiment: JAK2 (JH1) Enzymatic Assay at ATP=Km (30 μM), TR-FRET; assay type: biochemical; details: 30 μM ATP (=Km), 60 min at 25° C., read-out: V617F ENZ 30 μM
T1 construct: phosphorylated on the tyrosine residue by catalytic domain (JH1) of JAK2 protein; purchased BPS 40450
T1 sequence (O60674 849-1124 limits assumed): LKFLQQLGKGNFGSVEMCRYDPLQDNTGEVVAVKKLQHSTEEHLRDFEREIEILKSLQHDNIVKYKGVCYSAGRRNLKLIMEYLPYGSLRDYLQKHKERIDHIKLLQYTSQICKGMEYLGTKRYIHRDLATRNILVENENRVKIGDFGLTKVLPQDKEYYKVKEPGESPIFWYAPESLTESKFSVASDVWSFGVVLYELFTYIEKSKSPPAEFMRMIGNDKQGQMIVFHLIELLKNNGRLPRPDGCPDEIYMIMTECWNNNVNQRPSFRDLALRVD
Procedure: Example A. JAK2 (JH1) Enzymatic Assay at ATP=Km (30 μM)
Inhibitor potency was determined in TR-FRET assay, which measures HTRF signal generated as a result of Eu-labeled anti-phosphotyrosine antibody binding to Biotin-labeled peptide, phosphorylated on the tyrosine residue by catalytic domain (JH1) of JAK2 protein in the presence of ATP-Mg and Allophycocyanin-streptavidin (APC-SA). JH1 domain of JAK2 protein was purchased from BPS (#40450), Eu-W1204-labeled Anti-Phosphotyrosine Antibody (PY-20) and SureLight Allophycocyanin-streptavidin were purchased from PerkinElmer (#AD0067 and #AD0201). Peptide Biot-EQEDEPEGDYFEWLEES-amide (SEQ ID NO.: 1) was purchased from Quality Controlled Biochemicals, MA (Q307-166). Assay buffer consisted of 50 mM Tris, pH=7.5, 10 mM MgCl2, 0.01% Brij-35, 0.1% BSA, 1 mM EGTA, 5% Glycerol and 5 mM DTT. To assess the inhibition of the enzymatic activity, compound was serially diluted in DMSO and a volume of 0.1 μL was transferred to the wells of a black regular volume 384-well plate (Greiner #781076) using Echo Liquid Handler (Labcyte Inc.). Positive and Negative control wells contained 0.1 μL of DMSO.
Enzyme (catalytic domain JH1 of JAK2) was diluted in assay buffer, and the Multidrop Combi liquid handler (Thermo Scientific) was used to dispense 10 μL to each well (except positive control wells, to which 10 μL of assay buffer were dispensed instead of protein).
Plate was centrifuged and reaction was started by addition of 10 μL of substrate solution containing biotinylated peptide and ATP to all wells. Plate was again centrifuged and enzymatic reaction was allowed to proceed for 60 min. at 25° C. Final concentrations in the assay were as follows: 0.02 nM protein, 30 uM ATP, 0.5 uM biotinylated peptide. Reaction was stopped by addition of 10 μL of solution, containing 45 mM EDTA, 144 nM APC/225 nM Streptavidin, and 4.5 nM Eu-Ab in detection buffer: 50 mM Tris, pH=7.8, 150 mM NaCl, 0.5 mg/ml BSA.
Plate was centrifuged and incubated for 30 min. at room temperature. HTRF signal was measured on PHERAstar plate reader instrument (BMG Labtech) with excitation at 337 nm and emissions at 620 nm and 665 nm. Data analysis tools integrated in Genedata Screener software were used to analyze the results. Raw data was normalized to percent of vehicle (DMSO) Negative control, after subtracting no-enzyme Positive inhibitor control. The IC50 values were derived by fitting the data to a four parameter logistic equation producing a sigmoidal dose-response curve using the following equation: Y=Bottom+(Top−Bottom)/(1+10^((Log IC50−X)*Hill slope)) where X is the logarithm of inhibitor concentration and Y is the response.

[2] = target: T2, pseudo-kinase domain (JH2) of human V617F mutant JAK2 (Homo sapiens, UniProt O60674, F794H/V617F/W659A/W777A); experiment: JAK2 LanthaScreen JH2-V617F Binding Assay; details: 50 nM Fluorescent JAK2-JH2 Tracer, 1 hour at 25° C., read-out: JH2 BIND V617F
T2 construct: pseudo-kinase domain (JH2, amino-acids 536-812 with 3 surface mutations W659A, W777A, F794H); purchased BPS Bioscience 79498; host or cells: baculovirus expression system
T2 sequence (O60674 536-812 V617F/W659A/W777A/F794H): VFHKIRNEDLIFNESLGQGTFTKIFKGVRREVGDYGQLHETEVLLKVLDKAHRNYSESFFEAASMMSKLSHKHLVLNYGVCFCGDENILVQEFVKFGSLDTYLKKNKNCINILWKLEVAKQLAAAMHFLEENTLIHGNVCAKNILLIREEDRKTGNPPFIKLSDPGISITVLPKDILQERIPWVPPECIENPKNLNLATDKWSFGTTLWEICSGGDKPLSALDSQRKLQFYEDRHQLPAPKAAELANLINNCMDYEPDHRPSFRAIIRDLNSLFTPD
Procedure: Example B. JAK2 LanthaScreen JH2-V617F Binding Assay
JAK2 JH2-V617F binding assay utilizes pseudo-kinase domain (JH2, amino-acids 536-812 with 3 surface mutations W659A, W777A, F794H) of human V617F mutant JAK2 expressed as C-terminal His-Avi-tagged, biotinylated protein in a baculovirus expression system (BPS Bioscience, Catalog #79498). The assay was conducted in black 384-well polystyrene plates in a final reaction volume of 20 μL. JAK2 JH2-V617F (0.26 nM) was incubated with compounds (100 nL serially diluted in DMSO) in the presence of 50 nM Fluorescent JAK2-JH2 Tracer (MedChem Express Catalog #HY-102055) and 0.25 nM Streptavidin-Tb cryptate (Cisbio Part #610SATLB) in assay buffer (50 mM Tris, pH=7.5, 10 mM MgCl2, 0.01% Brij-35, 0.1% BSA, 1 mM EGTA, 5% Glycerol and 5 mM DTT). Non-specific binding was accessed in the presence of 2 mM ATP. After incubation for 1 hour at 25° C., LanthaScreen signals were read on a PHERAstar FS plate reader (BMG LABTECH). Data was analyzed with IDBS XLfit and GraphPad Prism 5.0 software using a four parameter dose response curve to determine IC50 for each compound.

Structure (SMILES): CNc1ncc(-c2cccc(-c3cnn(C4CN(Cc5cccc(C(=O)N(C)C)n5)C4)c3)c2OC)c2cc(NC(=O)C3CC3)ncc12 [Example 1, 6-((3-(4-(3-(6-(Cyclopropanecarboxamido)-1-(methylamino)-2,7-naphthyridin-4-yl)-2-methoxyphenyl)-1H-pyrazol-1-yl)azetidin-1-yl)methyl)-N,N-dimethylpicolinamide]
- IC50 [1]: > 1000 nM
- IC50 [2]: ≤ 10 nM

Structure (SMILES): CNc1ncc(-c2cccc(-c3cnn(C4CN(Cc5cccc(C(=O)N(C)C6CC6)n5)C4)c3)c2OC)c2cc(NC(=O)C3CC3)ncc12 [Example 2, 6-((3-(4-(3-(6-(Cyclopropane-carboxamido)-1-(methylamino)-2,7-naphthyridin-4-yl)-2-methoxyphenyl)-1H-pyrazol-1-yl)azetidin-1-yl)methyl)-N-cyclopropyl-N-methyl-picolinamide]
- IC50 [1]: > 1000 nM
- IC50 [2]: ≤ 10 nM

Structure (SMILES): CNc1ncc(-c2cccc(-c3cnn(C4CN(Cc5cccc(C(=O)N(C)CC(F)(F)F)n5)C4)c3)c2OC)c2cc(NC(=O)C3CC3)ncc12 [Example 3, 6-((3-(4-(3-(6-(Cyclopropane-carboxamido)-1-(methylamino)-2,7-naphthyridin-4-yl)-2-methoxyphenyl)-1H-pyrazol-1-yl)azetidin-1-yl)methyl)-N-methyl-N-(2,2,2-trifluoroethyl) picolinamide]
- IC50 [1]: > 1000 nM
- IC50 [2]: ≤ 10 nM

Structure (SMILES): CNc1ncc(-c2cccc(-c3cnn(C4CN(Cc5cccc(C(=O)N6CCCC6)n5)C4)c3)c2OC)c2cc(NC(=O)C3CC3)ncc12 [Example 4, N-(5-(2-Methoxy-3-(1-(1-((6-(pyrrolidine-1-carbonyl)pyridin-2-yl)methyl)azetidin-3-yl)-1H-pyrazol-4-yl)phenyl)-8-(methylamino)-2,7-naphthyridin-3-yl)cyclopropane-carboxamide]
- IC50 [1]: > 1000 nM
- IC50 [2]: ≤ 10 nM

Structure (SMILES): CNc1ncc(-c2cccc(-c3cnn(C4CN(Cc5csc(C(=O)N(C)CC(F)(F)F)n5)C4)c3)c2OC)c2cc(NC(=O)C3CC3)ncc12 [Example 5, 4-((3-(4-(3-(6-(Cyclopropane-carboxamido)-1-(methylamino)-2,7-naphthyridin-4-yl)-2-methoxyphenyl)-1H-pyrazol-1-yl)azetidin-1-yl)methyl)-N-methyl-N-(2,2,2-trifluoroethyl) thiazole-2-carboxamide]
- IC50 [1]: > 1000 nM
- IC50 [2]: 10 to 100 nM

Structure (SMILES): CNc1ncc(-c2cccc(-c3cnn(C4CN(Cc5cccc(S(C)(=O)=O)n5)C4)c3)c2OC)c2cc(NC(=O)C3CC3)ncc12 [Example 6, N-(5-(2-Methoxy-3-(1-(1-((6-(methylsulfonyl)pyridin-2-yl)methyl)azetidin-3-yl)-1H-pyrazol-4-yl)phenyl)-8-(methylamino)-2,7-naphthyridin-3 yl)cyclopropane carboxamide]
- IC50 [1]: > 1000 nM
- IC50 [2]: ≤ 10 nM

Structure (SMILES): CNc1ncc(-c2cccc(-c3cnn(C4CN(Cc5cccc(C(F)F)n5)C4)c3)c2OC)c2cc(NC(=O)C3CC3)ncc12 [Example 7, N-(5-(3-(1-(1-((6-(Difluoromethyl)pyridin-2-yl)methyl)azetidin-3-yl)-1H-pyrazol-4-yl)-2-methoxyphenyl)-8-(methylamino)-2,7-naphthyridin-3-yl)cyclopropanecarboxamide]
- IC50 [1]: > 1000 nM
- IC50 [2]: ≤ 10 nM

Structure (SMILES): CNc1ncc(-c2cccc(-c3cnn(C4CN(C(=O)c5cccc(C(=O)N(C)C)n5)C4)c3)c2OC)c2cc(NC(=O)C3CC3)ncc12 [Example 8, 6-(3-(4-(3-(6-(Cyclopropanecarboxamido)-1-(methylamino)-2,7-naphthyridin-4-yl)-2-methoxyphenyl)-1H-pyrazol-1-yl)azetidine-1-carbonyl)-N,N-dimethylpicolinamide]
- IC50 [1]: > 1000 nM
- IC50 [2]: ≤ 10 nM

Structure (SMILES): CNc1ncc(-c2cccc(-c3cnn(C4CCN(Cc5ccccn5)CC4)c3)c2OC)c2cc(NC(=O)C3CC3)ncc12 [Example 9, N-(5-(2-Methoxy-3-(1-(1-(pyridin-2-ylmethyl)piperidin-4-yl)-1H-pyrazol-4-yl)phenyl)-8-(methylamino)-2,7-naphthyridin-3-yl)cyclopropanecarboxamide]
- IC50 [1]: > 1000 nM
- IC50 [2]: 10 to 100 nM

Structure (SMILES): CNc1ncc(-c2cccc(-c3cnn(C(C)C(=O)O)c3)c2OC)c2cc(NC(=O)C3CC3)ncc12 (stereo not drawn) [Example 10, 2-(4-(3-(6-(Cyclopropanecarboxamido)-1-(methylamino)-2,7-naphthyridin-4-yl)-2-methoxyphenyl)-1H-pyrazol-1-yl)propanoic acid]
- IC50 [1]: > 1000 nM
- IC50 [2]: 10 to 100 nM

Structure (SMILES): CNc1ncc(-c2cccc(-c3cnn(C4CN(Cc5cccc(C(=O)N(C)C)n5)C4)c3)c2OC)c2cc(NC(=O)C3CC3)nnc12 [Example 11, 6-((3-(4-(3-(3-(Cyclopropanecarboxamido)-8-(methylamino)pyrido[3,4-c]pyridazin-5-yl)-2-methoxyphenyl)-1H-pyrazol-1-yl)azetidin-1-yl)methyl)-N,N-dimethylpicolinamide]
- IC50 [1]: > 1000 nM
- IC50 [2]: ≤ 10 nM

Structure (SMILES): CNc1ncc(-c2cccc(-c3cnn(C4CN(Cc5cccc(C(=O)N(C)C6CC6)n5)C4)c3)c2OC)c2cc(NC(=O)C3CC3)nnc12 [Example 12, 6-((3-(4-(3-(3-(Cyclopropanecarboxamido)-8-(methylamino)pyrido[3,4-c]pyridazin-5-yl)-2-methoxyphenyl)-1H-pyrazol-1-yl)azetidin-1-yl)methyl)-N-cyclopropyl-N-methylpicolinamide]
- IC50 [1]: > 1000 nM
- IC50 [2]: ≤ 10 nM

Structure (SMILES): CNc1ncc(-c2cccc(-c3cnn(C4CN(Cc5cccc(C(=O)N(C)CC6CC6)n5)C4)c3)c2OC)c2cc(NC(=O)C3CC3)nnc12 [Example 13, 6-((3-(4-(3-(3-(Cyclopropane-carboxamido)-8-(methylamino)pyrido[3,4-c]pyridazin-5-yl)-2-methoxy-phenyl)-1H-pyrazol-1-yl)azetidin-1-yl)methyl)-N-(cyclopropyl-methyl)-N-methyl-picolinamide]
- IC50 [1]: > 1000 nM
- IC50 [2]: ≤ 10 nM

Structure (SMILES): CNc1ncc(-c2cccc(-c3cnn(C4CN(Cc5cccc(C(=O)N(C)CC(F)(F)F)n5)C4)c3)c2OC)c2cc(NC(=O)C3CC3)nnc12 [Example 14, 6-((3-(4-(3-(3-(Cyclopropane-carboxamido)-8-(methylamino)pyrido[3,4-c]pyridazin-5-yl)-2-methoxy-phenyl)-1H-pyrazol-1-yl)azetidin-1-yl)methyl)-N-methyl-N-(2,2,2-trifluoroethyl) picolinamide]
- IC50 [1]: > 1000 nM
- IC50 [2]: ≤ 10 nM

Structure (SMILES): CNc1ncc(-c2cccc(-c3cnn(C4CN(Cc5cccc(C(=O)N6CCCC6)n5)C4)c3)c2OC)c2cc(NC(=O)C3CC3)nnc12 [Example 15, N-(5-(2-Methoxy-3-(1-(1-((6-(pyrrolidine-1-carbonyl)pyridin-2-yl)methyl)azetidin-3-yl)-1H-pyrazol-4-yl)phenyl)-8-(methylamino)pyrido[3,4-c]pyridazin-3-yl)cyclopropane-carboxamide]
- IC50 [1]: > 1000 nM
- IC50 [2]: ≤ 10 nM
